Measurements from PubChem BioAssay (NCI).
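Briefly, cells in 96-well plates were exposed to five compound concentrations for 48 h, and endpoints were estimated by linear interpolation. GI50 marks 50% less growth. At the TGI there is no net growth.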

Legend:
Test in all cases: inhibition of tumour cell growth, NCI panel, 48 h; in the data active = GI50 below about 0.43 µM; inactive = the rest
[1] = system: OVCAR-3 ovarian
[2] = system: KM12 colon
[3] = system: T-47D breast
[4] = system: MOLT-4 leukemia
[5] = system: UO-31 renal
[6] = system: MCF7 breast
[7] = system: MDA-MB-435
[8] = system: SK-MEL-5 melanoma
[9] = system: SN12C renal
[10] = system: U251 CNS
[11] = system: BT-549 breast
[12] = system: OVCAR-8 ovarian
[13] = system: SF-295 CNS
[14] = system: SK-OV-3 ovarian
[15] = system: DU-145 prostate
[16] = system: LOX IMVI melanoma
[17] = system: NCI/ADR-RES ovarian
[18] = system: HOP-62 NSCLC
[19] = system: HT29 colon
[20] = system: NCI-H460 lung
[21] = system: RPMI-8226 leukemia
[22] = system: HCT-15 colon
[23] = system: NCI-H522 lung
[24] = system: SK-MEL-2 melanoma
[25] = system: ACHN renal
[26] = system: SF-268 CNS
[27] = system: MDA-MB-231 breast
[28] = system: TK-10 renal
[29] = system: SK-MEL-28 melanoma
[30] = system: SW-620 colon
[31] = system: HCC-2998 colon
[32] = system: 786-0 renal
[33] = system: CCRF-CEM leukemia
[34] = system: M14 melanoma
[35] = system: HCT-116 colon
[36] = system: HOP-92 NSCLC
[37] = system: HS 578T breast
[38] = system: SF-539 CNS
[39] = system: CAKI-1 renal
[40] = system: K-562 leukemia
[41] = system: NCI-H23 lung
[42] = system: EKVX NSCLC
[43] = system: SNB-19 CNS
[44] = system: A549 NSCLC
[45] = system: SNB-75 CNS
[46] = system: PC-3 prostate
[47] = system: UACC-62 melanoma
[48] = system: OVCAR-4 ovarian
[49] = system: OVCAR-5 ovarian
[50] = system: MALME-3M melanoma
[51] = system: COLO 205 colon
[52] = system: NCI-H226 lung
[53] = system: RXF 393 renal
[54] = system: HL-60(TB) leukemia
[55] = system: IGROV1 ovarian
[56] = system: UACC-257 melanoma
[57] = system: A498 renal

CCOP(=O)(OCC)C(NC(c1ccccc1)c1ccccc1)c1ccccc1 (stereo not drawn)
45.3 µM: TGI [45]
29.5 µM: TGI [31]
inactive: GI50 [1] 3.66 µM | GI50 [2] 18.4 µM | GI50 [3] 42.6 µM | GI50 [5] 14.9 µM | GI50 [6] 15.9 µM | GI50 [7] 1.36 µM | GI50 [8] 19 µM | GI50 [9] 16.8 µM | GI50 [10] 14.5 µM | GI50 [11] 15.4 µM | GI50 [12] 16.3 µM | GI50 [13] 2.05 µM | GI50 [14] 24.3 µM | GI50 [15] 15 µM | GI50 [16] 14 µM | GI50 [17] 11 µM | GI50 [18] 16.6 µM | GI50 [19] 32.2 µM | GI50 [20] 17.2 µM | GI50 [21] 4.18 µM | GI50 [22] 13.7 µM | GI50 [23] 17.1 µM | GI50 [24] 22.3 µM | GI50 [25] 13.2 µM | GI50 [26] 15.6 µM | GI50 [27] 10.6 µM | GI50 [28] 14.7 µM | GI50 [29] 41.1 µM | GI50 [30] 15 µM | GI50 [31] 14.8 µM | GI50 [32] 14.6 µM | GI50 [33] 18.2 µM | GI50 [34] 15.3 µM | GI50 [35] 13.2 µM | GI50 [36] 15.6 µM | GI50 [37] 1.89 µM | GI50 [38] 17.2 µM | GI50 [39] 10.4 µM | GI50 [40] 7.4 µM | GI50 [41] 14.4 µM | GI50 [42] 13.4 µM | GI50 [43] 48.1 µM | GI50 [44] 15 µM | GI50 [45] 21.7 µM | GI50 [46] 12 µM | GI50 [47] 12.1 µM | GI50 [48] 51.8 µM
27.1 µM: TGI [46]
99 µM: TGI [3]
30.3 µM: TGI [18]
28.2 µM: TGI [28]
34.6 µM: TGI [2] | TGI [11]
26.3 µM: TGI [25] | TGI [27]
3.47 µM: TGI [4]
25.9 µM: TGI [47]
8.89 µM: TGI [7]
13.5 µM: TGI [37]
33.3 µM: TGI [8]
33.6 µM: TGI [12]
active: GI50 [4] 0.0995 µM
30 µM: TGI [15] | TGI [44]
28.7 µM: TGI [41]
31.7 µM: TGI [30]
31.9 µM: TGI [6] | TGI [36]
> 100 µM: TGI [19] | TGI [29] | TGI [43] | TGI [48]
35.4 µM: TGI [26]
33.1 µM: TGI [38]
52 µM: TGI [14]
29.2 µM: TGI [32]
28.5 µM: TGI [10] | TGI [16] | TGI [42]
41 µM: TGI [20]
18.9 µM: TGI [1]
30.2 µM: TGI [5]
28.6 µM: TGI [34]
26 µM: TGI [35]
24.8 µM: TGI [17]
22.3 µM: TGI [21]
32.6 µM: TGI [9]
22.2 µM: TGI [39] | TGI [40]
27.6 µM: TGI [22]
14.8 µM: TGI [13]
52.2 µM: TGI [24]
58.8 µM: TGI [33]
48 µM: TGI [23]

Oc1ccc(Cc2ccc(O)c3ncccc23)c2cccnc12
0.996 µM: TGI [28]
53.2 µM: TGI [46]
73.9 µM: TGI [44]
0.609 µM: TGI [8]
0.0513 µM: TGI [36]
active: GI50 [1] 0.138 µM | GI50 [2] 0.149 µM | GI50 [49] 0.269 µM | GI50 [3] 0.15 µM | GI50 [4] 0.231 µM | GI50 [5] 0.0322 µM | GI50 [6] 0.0524 µM | GI50 [7] 0.0383 µM | GI50 [8] 0.12 µM | GI50 [9] 0.0361 µM | GI50 [10] 0.0355 µM | GI50 [11] 0.0382 µM | GI50 [12] 0.0477 µM | GI50 [13] 0.294 µM | GI50 [14] 0.214 µM | GI50 [15] 0.0564 µM | GI50 [16] 0.0402 µM | GI50 [17] 0.212 µM | GI50 [50] 0.0497 µM | GI50 [18] 0.0442 µM | GI50 [20] 0.0323 µM | GI50 [21] 0.0424 µM | GI50 [22] 0.0712 µM | GI50 [23] 0.0439 µM | GI50 [24] 0.228 µM | GI50 [25] 0.0367 µM | GI50 [52] 0.373 µM | GI50 [26] 0.0527 µM | GI50 [27] 0.0487 µM | GI50 [53] 0.154 µM | GI50 [28] 0.238 µM | GI50 [54] 0.263 µM | GI50 [29] 0.0607 µM | GI50 [55] 0.0776 µM | GI50 [30] 0.0417 µM | GI50 [32] 0.193 µM | GI50 [33] 0.209 µM | GI50 [56] 0.236 µM | GI50 [34] 0.0423 µM | GI50 [35] 0.0359 µM | GI50 [36] 0.0114 µM | GI50 [37] 0.0365 µM | GI50 [57] 0.223 µM | GI50 [39] 0.341 µM | GI50 [40] 0.0425 µM | GI50 [41] 0.0448 µM | GI50 [42] 0.344 µM | GI50 [43] 0.0361 µM | GI50 [44] 0.0371 µM | GI50 [45] 0.0368 µM | GI50 [46] 0.0583 µM | GI50 [47] 0.0408 µM | GI50 [48] 0.371 µM
0.681 µM: TGI [24]
42.7 µM: TGI [52]
1.09 µM: TGI [18]
0.653 µM: TGI [14]
> 100 µM: TGI [1] | TGI [2] | TGI [49] | TGI [4] | TGI [5] | TGI [6] | TGI [7] | TGI [9] | TGI [10] | TGI [11] | TGI [12] | TGI [15] | TGI [16] | TGI [17] | TGI [50] | TGI [51] | TGI [19] | TGI [20] | TGI [22] | TGI [25] | TGI [26] | TGI [27] | TGI [53] | TGI [54] | TGI [29] | TGI [55] | TGI [30] | TGI [31] | TGI [32] | TGI [33] | TGI [34] | TGI [35] | TGI [37] | TGI [39] | TGI [40] | TGI [41] | TGI [42] | TGI [45] | TGI [48]
0.948 µM: TGI [13]
29.6 µM: TGI [43]
0.709 µM: TGI [56]
0.706 µM: TGI [57]
1.55 µM: TGI [21]
inactive: GI50 [51] > 100 µM | GI50 [19] > 100 µM | GI50 [31] 0.524 µM
0.804 µM: TGI [47]
0.531 µM: TGI [23]
0.704 µM: TGI [3]

c1ccc2c(c1)ccc1c3ccccc3c(NCCCCN3CCCCC3)cc21
3.36 µM: TGI [31]
3.25 µM: TGI [2]
> 100 µM: TGI [19] | TGI [44]
3.2 µM: TGI [49]
inactive: GI50 [2] 1.75 µM | GI50 [49] 1.69 µM | GI50 [19] 3.5 µM | GI50 [31] 1.75 µM | GI50 [44] 3.1 µM
